Among the test systems are NCI-H522 lung; CAKI-1 renal; OVCAR-8 ovarian; MOLT-4 leukemia; HCT-116 colon; K-562 leukemia; RXF 393 renal; SR leukemia; MALME-3M melanoma.
Common to all, as to test: NCI tumour cell line growth inhibition, 48 h

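Protocol summary: plate cells (96-well), add compound at 5 concentrations, incubate 48 h, interpolate endpoints linearly. The concentration for 50% growth inhibition is given as GI50. TGI denotes the concentration required for complete inhibition of growth.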

Turning to `C[CH2][Ge]([CH2]C)([CH2]C)[O]C(=O)C([O][Ge]([CH2]C)([CH2]C)[CH2]C)c1ccccc1` (stereo unspecified), the GI50 was 11 µM with NCI-H522 lung; 19.2 µM in the assay on CAKI-1 renal; 18.2 µM in the assay with OVCAR-8 ovarian; 23.8 µM in the assay on MOLT-4 leukemia; 13.9 µM in the assay on HCT-116 colon; 14.3 µM in the assay with K-562 leukemia. Besides, the figures for the GI50 with SR leukemia and in the assay on MALME-3M melanoma were 14.5 µM and 16.8 µM, respectively. Further, the TGI in the assay on NCI-H522 lung was 27.3 µM; in the assay on CAKI-1 renal it was 44.9 µM; with OVCAR-8 ovarian, 97.9 µM; in the assay with MOLT-4 leukemia, over 100 µM; in the assay with HCT-116 colon it was 30.2 µM; with K-562 leukemia it was 46.1 µM. The TGI in the assay with RXF 393 renal was 16.1 µM; with SR leukemia, 75.4 µM; with MALME-3M melanoma, over 100 µM.

As for `O=C([CH-]C(=O)c1ccccc1)c1ccccc1.[CH3-].[CH3-].[CH3-].[Sn+4]`, the GI50 was 11.8 µM in the assay on NCI-H522 lung; 13.6 µM with CAKI-1 renal; 8.25 µM in the assay on OVCAR-8 ovarian; 3.18 µM in the assay on MOLT-4 leukemia; 5.95 µM in the assay with HCT-116 colon; 4.92 µM in the assay with K-562 leukemia. For the same molecule, the GI50 with RXF 393 renal is 10.6 µM; in the assay with SR leukemia it was 1.93 µM; in the assay on MALME-3M melanoma, 10.7 µM. The TGI was 24.2 µM with NCI-H522 lung; over 100 µM with CAKI-1 renal; 53.8 µM with OVCAR-8 ovarian; 13.6 µM with MOLT-4 leukemia; 19.1 µM in the assay on HCT-116 colon; 23.6 µM in the assay with K-562 leukemia. Also, the TGI with RXF 393 renal worked out at 31.9 µM; with SR leukemia it was 11.5 µM; in the assay with MALME-3M melanoma, 29.6 µM.

Turning to `CCP(C)(C)=O`, the TGI in the assay on CAKI-1 renal, in the assay on OVCAR-8 ovarian, with MOLT-4 leukemia, in the assay on K-562 leukemia, in the assay with RXF 393 renal and with MALME-3M melanoma was over 100 µM in each case.

Regarding `CC1(C)Cc2nnsc2C2=C1C(=O)CCS2`, the TGI in the assay on NCI-H522 lung, in the assay on CAKI-1 renal, in the assay with OVCAR-8 ovarian, in the assay on MOLT-4 leukemia, with K-562 leukemia and in the assay on RXF 393 renal was over 100 µM each time. This molecule gave a TGI in the assay on MALME-3M melanoma of over 100 µM.

As for `C/C=C/C=C/CCCCCCCCCCCCC[C@]1(OC)C=CC(CC(=O)OC)OO1` (stereo partly specified), the GI50 with NCI-H522 lung is 3.8 µM; in the assay with CAKI-1 renal, 17.1 µM; with OVCAR-8 ovarian, 17.6 µM; in the assay on MOLT-4 leukemia, 19.9 µM; with RXF 393 renal, 16.5 µM. Besides, the TGI in the assay on NCI-H522 lung worked out at 16.6 µM; in the assay on CAKI-1 renal, 31.1 µM; with OVCAR-8 ovarian it was 37.7 µM; in the assay on MOLT-4 leukemia, 48.7 µM; in the assay with HCT-116 colon, 29.6 µM; in the assay on K-562 leukemia it was 52.1 µM. The TGI in the assay with RXF 393 renal was found to be 31 µM; with MALME-3M melanoma, 77.5 µM.

For `CCOC(=O)C1=C(c2ccccc2)NC(c2ccccc2)=C(C(=O)OCC)c2c1c(=O)cc[nH]c2=O`, the TGI in the assay with NCI-H522 lung, with CAKI-1 renal, in the assay with OVCAR-8 ovarian, in the assay with MOLT-4 leukemia, with HCT-116 colon and in the assay with K-562 leukemia was over 100 µM throughout. Besides, the TGI in the assay on SR leukemia and in the assay with MALME-3M melanoma was over 100 µM throughout.

On to `NCCn1cnc2nc(NC(=O)c3ccccc3)[nH]c(=O)c21`, for which the TGI in the assay on OVCAR-8 ovarian, in the assay on MOLT-4 leukemia, in the assay with HCT-116 colon, with K-562 leukemia, in the assay on RXF 393 renal and in the assay with SR leukemia was over 100 µM throughout. In the assay with MALME-3M melanoma, the TGI is over 100 µM.

As to `Cc1ccccc1NC(=O)C(=O)CC(=O)C1CCOC1=O` (stereo unspecified), the TGI in the assay on NCI-H522 lung, with CAKI-1 renal, in the assay on OVCAR-8 ovarian, with HCT-116 colon, in the assay with K-562 leukemia and in the assay on RXF 393 renal was over 100 µM throughout. In the assay with MALME-3M melanoma, this molecule showed a TGI of over 100 µM.

As to `Cc1cccc(C)c1NC(=O)CCCC(=O)C(C#N)c1ccc(Cl)cc1` (stereo unspecified), the TGI with NCI-H522 lung, with CAKI-1 renal, in the assay with OVCAR-8 ovarian, with MOLT-4 leukemia, in the assay on HCT-116 colon and with K-562 leukemia was over 100 µM in each case. In addition, the TGI with SR leukemia and in the assay on MALME-3M melanoma was over 100 µM in each case.

For `COc1ccc(/C(=C\c2cc(OC)c(OC)c(OC)c2)C(=O)O)cc1`, the TGI is 47.7 µM in the assay on NCI-H522 lung; over 100 µM in the assay on CAKI-1 renal; over 100 µM in the assay on OVCAR-8 ovarian; 86.3 µM with MOLT-4 leukemia; over 100 µM with HCT-116 colon; over 100 µM in the assay with K-562 leukemia. Besides, the TGI with RXF 393 renal is 39.7 µM; with SR leukemia it was over 100 µM; in the assay on MALME-3M melanoma, over 100 µM.

For `COc1ccc(C(=O)C/C(=N/NC(N)=S)C(=O)Nc2ccccc2)cc1`, the TGI in the assay with CAKI-1 renal, in the assay with OVCAR-8 ovarian, in the assay with MOLT-4 leukemia, with HCT-116 colon, in the assay on K-562 leukemia and with RXF 393 renal was over 100 µM each time. Besides, the TGI in the assay on MALME-3M melanoma was over 100 µM.

On to `CCOC(=O)C1=C(C)N(NC(=O)OC)C2(N)N(NC(=O)OC)C(C)=C(C(=O)OCC)C12C#N` (stereo unspecified), for which the TGI in the assay on NCI-H522 lung, in the assay with CAKI-1 renal, in the assay on OVCAR-8 ovarian, with MOLT-4 leukemia, with HCT-116 colon and in the assay on K-562 leukemia was over 100 µM in each case. Further, the TGI in the assay on SR leukemia and with MALME-3M melanoma was over 100 µM each time.

For the molecule `COC(=O)c1ccc(NC(N)=NCC(C)(C)COc2ccc(C(F)(F)F)cc2)nc1`, the results for the GI50 with NCI-H522 lung, with RXF 393 renal and in the assay on MALME-3M melanoma were 1.6 µM, 1.49 µM and 1.72 µM, respectively. Also, the values for the TGI in the assay on NCI-H522 lung, in the assay on RXF 393 renal and in the assay on MALME-3M melanoma were 3.23 µM, 2.96 µM and 3.48 µM, respectively.

These data come from PubChem BioAssay (NCI).
